{
  "source": "patent US9370185B2",
  "about": "“Herbicidal composition” (ISHIHARA SANGYO KAISHA, LTD., priority 2011, dated 2016)",
  "type_in_all_cases": "in vivo",
  "key": {"[1]": {"test_system": "black nightshade (Solanum nigrum L.)", "test": "Test Example 1: foliar treatment of black nightshade, visual growth inhibition", "conditions": "foliar treatment at 2.3 to 2.5 leaf stage, 21st day after treatment, read-out: Growth Inhibition Rate of Black nightshade (%) Measured Value", "protocol": "Upland field soil was put into a 1/1,000,000-ha pot, and seeds of black nightshade (Solanum nigrum L.) were sown. When the black nightshade reached the 2.3 to 2.5 leaf stage, prescribed amounts of a water dispersible granules containing flazasulfuron as an active ingredient (trade name: SHIBAGEN DF, manufactured by Ishihara Sangyo Kaisha, Ltd.) and a wettable powder containing pyroxasulfone as an active ingredient were diluted with water (corresponding to 1,000 L/ha) containing 0.05% by volume of an agricultural adjuvant (trade name: KUSARINOH, manufactured by NIHON NOHYAKU Co., Ltd.) and applied for foliar treatment by a small sprayer.\nOn the 21st day after the treatment, the state of growth of the black nightshade was visually observed and examined, followed by evaluation according to the following evaluation criteria. A growth inhibition rate (%) (measured value) and a growth inhibition rate (%) (calculated value) as calculated according to the foregoing Colby's method are shown in Table 1.\n(§1) Growth inhibition rate (%)=weed control rate of from 0% (equivalent to the non-treated plot) to 100% (complete kill)"}, "[2]": {"test_system": "crabgrass (Digitaria sanguinalis (L.) Scop.)", "test": "Test Example 2: foliar treatment of crabgrass, visual growth inhibition", "conditions": "foliar treatment at 4.0 to 4.5 leaf stage, 21st day after treatment, read-out: Growth Inhibition Rate of Crabgrass (%) Measured Value", "protocol": "as §1\nUpland field soil was put into a 1/1,000,000-ha pot, and seeds of crabgrass (Digitaria sanguinalis (L.) Scop.) were sown. When the crabgrass reached the 4.0 to 4.5 leaf stage, prescribed amounts of SHIBAGEN DF (trade name) and a wettable powder containing pyroxasulfone as an active ingredient were diluted with water (corresponding to 1,000 L/ha) containing 0.05% by volume of KUSARINOH (trade name) and applied for foliar treatment by a small sprayer.\nOn the 21st day after the treatment, the state of growth of the crabgrass was visually observed and examined."}, "[3]": {"test_system": "common lambsquarters (Chenopodium album L.)", "test": "Test Example 4: soil treatment, common lambsquarters, visual growth inhibition", "conditions": "24 h, soil treatment one day after sowing, 27th day after treatment, read-out: Growth Inhibition Rate of Common lambsquarters (%) Measured Value", "protocol": "as §1\nUpland field soil was put into a 1/1,000,000-ha pot, and seeds of common lambsquarters (Chenopodium album L.) were sown. After one day, prescribed amounts of a water-based suspension containing nicosulfuron as an active ingredient and a wettable powder containing pyroxasulfone as an active ingredient were diluted with water (corresponding to 300 L/ha) and applied for soil treatment by a small sprayer.\nOn the 27th day after the treatment, the state of growth of the common lambsquarters was visually observed and examined."}, "[4]": {"test_system": "wild oat (Avena fatua L.)", "test": "Test Example 6: soil treatment, wild oat, visual growth inhibition", "conditions": "24 h, soil treatment one day after sowing, 28th day after treatment, read-out: Growth Inhibition Rate of Wild oat (%) Measured Value", "protocol": "as §1\n(§2) Upland field soil was put into a 1/300,000-ha pot, and seeds of wild oat (Avena fatua L.) were sown. After one day, prescribed amounts of SHIBAGEN DF (trade name) and a wettable powder containing pyroxasulfone as an active ingredient were diluted with water (corresponding to 1,000 L/ha) and applied for soil treatment by a small sprayer.\nOn the 28th day after the treatment, the state of growth of the wild oat was visually observed and examined."}, "[5]": {"test_system": "black nightshade (Solanum nigrum L.)", "test": "Test Example 5: soil treatment, black nightshade, visual growth inhibition", "conditions": "24 h, soil treatment one day after sowing, 14th day after treatment, read-out: Growth Inhibition Rate of Black nightshade (%) Measured Value", "protocol": "as §1\nas §2, with “black nightshade (Solanum nigrum” for “wild oat (Avena fatua”\nOn the 14th day after the treatment, the state of growth of the black nightshade was visually observed and examined."}, "[6]": {"test_system": "velvetleaf (Abutilon theophrasti Medic.)", "test": "Test Example 7: soil treatment, velvetleaf, visual growth inhibition", "conditions": "24 h, soil treatment one day after sowing, 28th day after treatment, read-out: Growth Inhibition Rate of Velvetleaf (%) Measured Value", "protocol": "as §1\nas §2, with “velvetleaf (Abutilon theophrasti Medic.)” for “wild oat (Avena fatua L.)”, “an oil-based suspension” for “SHIBAGEN DF”, “name: ONEHOPE NYUZAI, manufactured by Ishihara Sangyo Kaisha, Ltd.) containing nicosulfuron as an active ingredient” for “name)”\nOn the 28th day after the treatment, the state of growth of the velvetleaf was visually observed and examined."}, "[7]": {"test_system": "velvetleaf (Abutilon theophrasti Medic.)", "test": "Test Example 3: soil treatment, velvetleaf, visual growth inhibition", "conditions": "24 h, soil treatment one day after sowing, 21st day after treatment, read-out: Growth Inhibition Rate of Velvetleaf (%) Measured Value", "protocol": "as §1\nas §2, with “1/1,000,000-ha” for “1/300,000-ha”, “velvetleaf (Abutilon theophrasti Medic.)” for “wild oat (Avena fatua L.)”\nOn the 21st day after the treatment, the state of growth of the velvetleaf was visually observed and examined."}},
  "data": [
    {"compound": "Cn1nc(C(F)(F)F)c(CS(=O)(=O)C2=NOC(C)(C)C2)c1OC(F)F", "note": "[pyroxasulfone, 3-[5-(difluoromethoxy)-1-methyl-3-(trifluoromethyl)pyrazol-4-ylmethylsulfonyl]-4,5-dihydro-5,5-dimethyl-1,2-oxazole]", "values": [
      {"measurement": "inhibition at 25 g/ha", "setting": "[1]; dose 25 g/ha", "result": 20, "unit": "%"},
      {"measurement": "inhibition at 25 g/ha", "setting": "[2]; dose 25 g/ha", "result": 0, "unit": "%"},
      {"measurement": "inhibition at 200 g/ha", "setting": "[2]; dose 200 g/ha", "result": 40, "unit": "%"},
      {"measurement": "inhibition at 125 g/ha", "setting": "[3]; dose 125 g/ha", "result": 90, "unit": "%"},
      {"measurement": "inhibition at 12.5 g/ha", "setting": "[4]; dose 12.5 g/ha", "result": 0, "unit": "%"},
      {"measurement": "inhibition at 50 g/ha", "setting": "[5]", "result": 20, "unit": "%"},
      {"measurement": "inhibition at 150 g/ha", "setting": "[5]; dose 150 g/ha", "result": 30, "unit": "%"},
      {"measurement": "inhibition at 300 g/ha", "setting": "[5]; dose 300 g/ha", "result": 30, "unit": "%"},
      {"measurement": "inhibition at 50 g/ha", "setting": "[6]; dose 50 g/ha", "result": 40, "unit": "%"},
      {"measurement": "inhibition at 100 g/ha", "setting": "[6]", "result": 70, "unit": "%"},
      {"measurement": "inhibition at 300 g/ha", "setting": "[6]; dose 300 g/ha", "result": 80, "unit": "%"},
      {"measurement": "inhibition at 12.5 g/ha", "setting": "[7]; dose 12.5 g/ha", "result": 13, "unit": "%"}
    ]},
    {"compound": "COc1cc(OC)nc(NC(=O)NS(=O)(=O)c2ncccc2C(F)(F)F)n1", "note": "[flazasulfuron, 1-(4,6-dimethoxypyrimidin-2-yl)-3-(3-trilfuoromethyl-2-pyridylsulfony)urea]", "values": [
      {"measurement": "inhibition at 12.5 g/ha", "setting": "[1]; dose 12.5 g/ha", "result": 33, "unit": "%"},
      {"measurement": "inhibition at 50 g/ha", "setting": "[2]; dose 50 g/ha", "result": 70, "unit": "%"},
      {"measurement": "inhibition at 100 g/ha", "setting": "[4]; dose 100 g/ha", "result": 85, "unit": "%"},
      {"measurement": "inhibition at 25 g/ha", "setting": "[5]; dose 25 g/ha", "result": 50, "unit": "%"},
      {"measurement": "inhibition at 50 g/ha", "setting": "[5]", "result": 60, "unit": "%"},
      {"measurement": "inhibition at 100 g/ha", "setting": "[5]; dose 100 g/ha", "result": 80, "unit": "%"},
      {"measurement": "inhibition at 50 g/ha", "setting": "[7]; dose 50 g/ha", "result": 94, "unit": "%"}
    ]},
    {"compound": "COc1cc(OC)nc(NC(=O)NS(=O)(=O)c2ncccc2C(=O)N(C)C)n1", "note": "[nicosulfuron, 2-(4,6-dimethoxypyrimidin-2-ylcarbamoylsulfamoyl)-N,N-dimethylnicotinamide]", "values": [
      {"measurement": "inhibition at 30 g/ha", "setting": "[3]; dose 30 g/ha", "result": 35, "unit": "%"},
      {"measurement": "inhibition at 20 g/ha", "setting": "[6]; dose 20 g/ha", "result": 0, "unit": "%"},
      {"measurement": "inhibition at 100 g/ha", "setting": "[6]", "result": 10, "unit": "%"}
    ]}
  ]
}
